Measured values: patent publication US8048918B2, “Treatment of hyperproliferative diseases” (Vampex Limited, priority 2000, dated 2011)
“Also recorded” adds a separate entry of the source. Where no end group is shown, it is not given here.

How the values were obtained:
COS-7 cells = assay: proliferation assay of COS-7 cells (Coulter counter); type: cell-based; settings: P142 1 mg/ml, peptides 6 μM; 24 and 48 hours after treatment; FIG. 8
Experimental: […] (COS1 and COS7) are purchased from the European Cell Culture Collection, thawed and propagated according to the instructions from the supplier; cells are cultured essentially in the same manner as for normal human keratinocytes (Example 3 above), except that cells are seeded at 20 000 cells/cm^2, with only one treatment with antibody P142, control immunoglobulin, peptide 589, peptide 592 or control peptide 24 hrs after seeding.
Proliferation is assayed by counting cells in a Coulter counter, as described above.

[1] = system: hyperproliferative psoriatic keratinocytes; assay: proliferation assay (Coulter cell counter) on hyperproliferative psoriatic keratinocytes; type: cell-based, human
Description: Biopsy samples are obtained from psoriatic patients. Skin from patients with chronic plaque psoriasis are obtained with informed consent. Ethical approval has been obtained previously from The South Sheffield Regional Ethics Committee. Biopsies are all be taken from the lower back in psoriasis patients aged 40 to 60.
Remove subcutaneous tissue and some of the dermis with scissors, dissect skin into 1×2 cm pieces with a scalpel. Rinse the tissue 2-5 times in PBSA. Float skin samples on 0.6% Trypsin in PBSA (pH 7.4) ON at 4° C. (or alternatively for 20-30 min at 37° C.)
The separation of the epidermis is carefully monitored. When the first detachment of the epidermis is visible at the cut edges of the skin sample place the pieces (dermis-side down) in 100 mm Petri dishes. Irrigate with 5 ml of complete culture medium (incl. serum). Peel off the epidermis with forceps and collect it in a 50 ml centrifuge tube containing 20 ml of complete culture medium (KGM). Separate the keratinocytes from the epidermal cells by gently pipetting and sieving through a nylon gauze of 100 μm mesh. Wash the isolated epidermal cells twice in KGM by centrifugation at 100 g for 10 min, and count the total number of cells.
Cells are seeded at 37° C. in KGM medium at a density of 2500 cells/cm^2 in a 25 cm^2 cell culture flask. The medium is replaced every 48 hours and cells are passaged when confluent.
Cell Seeding and Analysis: Purchased secondary cultures or primary cultures (from donor skin) are seeded at 3500 cells/cm^2 in K-SFM 25 cm^2 tissue culture flasks. The medium is changed (5 ml per flask) the day after seeding and every other day thereafter. At 70-80% confluence the cells are subcultured by seeding 3500 cells per well in 24 well cell culture plates, each well containing 500 μl of K-SFM. One well plate is seeded for each treatment. After allowing one day for settling the cells are switched to experimental medium (500 μl per well). Stock solutions of additions are as before. Experimental treatments are as follows:
The medium is replaced every other day. Cells are harvested by trypsinisation. 500 μl Trypsin/EDTA is added to each well to be harvested and then aspirated off. The well plates are incubated for 5-6 min at 37° C. 500 μl PBS is added to the wells and the cells are resuspended. The cell suspension is added to 20 ml Isoton solution in a Coulter counter “Accuvette” and the cells are counted. On each harvest, 3 wells of cells are counted for each treatment and 3 counts were made for each well.
Cell number is calculated as follows: Coulter Counter removes 500 μl of 20 ml sample ( 1/40). Multiply cell count by 40 to obtain cell number in cup, this equals the total number of cells in one well (approximately, as ˜10% taken out for viability test). […]

retinoic acid synthesis = assay: RA synthesis in normal human epidermal keratinocytes; type: cell-based; settings: Carbenoxolone 6 μM, Disulfiram 15 μM or Citral 10 μM
Experimental: Protocols used are as described in as in Båvik et al., Experimental Cell research 1995:216, p. 358-362. Briefly, subcultures are grown to confluence in KGM. On day of confluence change to keratinocyte differentiation media (1.2 mM Ca^2+, KDM) with 2 μM holo-RBP+/−inhibitors ([…]; […]; 10 μM Citral; 0.2 mM 4-Methylpyrazole; 15 μM Disulfiram; 10 μM Citral; 2 mM 3-Mercaptopropionic acid; or drug vehicle alone). Cells are grown for 4 days, and cells are media are harvested.
The concentration of RA in cells and media is analysed directly by HPLC. Essentially as in “Characterisation of retinol metabolism in cultured human epidermal keratinocytes”, Randolph R. K. and Simon M., J. Biol. Chem. 268:9198-9205, 1993. The concentration of RA in cells is also analysed indirectly by Northern blot analysis of CRABPII mRNA expression in the keratinocytes, essentially as described in Elder et al. Retinoid Induction of CRABPII nRNA in Human Dermal Fibroblasts: Use as a Retinoid Bioassay, J. Investigative Dermatology 106:517-521, 1996.
The above two experiments are repeated, but with the use of normal human epithelial keratinocytes instead of psoriatic human epidermal keratinocytes.

RalDHII = target: T1, RalDHII (Rattus norvegicus, UniProt Q63639); settings: Penzes et al. 1997; Chen and Juchau 1997; cited from earlier work
T1 sequence (Q63639 1-518): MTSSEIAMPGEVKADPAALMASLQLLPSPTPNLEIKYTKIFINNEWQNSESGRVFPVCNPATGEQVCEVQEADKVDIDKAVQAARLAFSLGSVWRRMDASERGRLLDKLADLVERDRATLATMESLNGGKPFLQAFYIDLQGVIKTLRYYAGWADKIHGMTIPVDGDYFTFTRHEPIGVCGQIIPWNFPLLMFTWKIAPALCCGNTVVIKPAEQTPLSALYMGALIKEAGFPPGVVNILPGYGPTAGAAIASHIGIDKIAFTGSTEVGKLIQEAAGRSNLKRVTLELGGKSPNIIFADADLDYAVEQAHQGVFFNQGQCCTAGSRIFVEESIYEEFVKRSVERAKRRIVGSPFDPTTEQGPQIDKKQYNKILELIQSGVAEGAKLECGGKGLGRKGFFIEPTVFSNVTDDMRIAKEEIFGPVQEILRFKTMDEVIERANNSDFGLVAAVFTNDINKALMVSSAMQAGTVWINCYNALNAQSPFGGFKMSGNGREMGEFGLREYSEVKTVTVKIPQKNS

For GRVRLLNNWDVCA, the “proliferation of Cos-7 cells (cell numbers)” value (COS-7 cells) was “marked reduction in proliferation” and the “effect on RBP-increased proliferation” value ([1]; peptides 6 μM, Ca2+ 1.2 mM, RBP 0.6 μM) was “reversed; also recorded: reduces proliferation”.

With CC1(C)[C@@H](OC(=O)CCC(=O)O)CC[C@]2(C)[C@H]3C(=O)C=C4[C@@H]5C[C@@](C)(C(=O)O)CC[C@]5(C)CC[C@@]4(C)[C@]3(C)CC[C@@H]12 [Carbenoxolone] the “effect on retinol/retinoic acid-induced keratinocyte proliferation (cell numbers)” value ([1]; RA synthesis inhibitors (Disulfiram 15 μM, Citral 10 μM, Carbenoxolone 12 μM), 1.2 mM Ca2+, 2 μM ROL, FIG. 10) was “particularly marked effect” and the retinoic acid synthesis (retinoic acid synthesis) was “inhibited”.

For CC(C)=CCCC(C)=CC=O [Citral, 3,7-dimethyl-2,6-octadienal], the IC50 (RalDHII) is listed as 12 µM and the retinoic acid synthesis (retinoic acid synthesis) is listed as “inhibited”.
